Assay type in all cases: binding
In one experiment the target is T1, FGF-R4 ECD (Homo sapiens, UniProt P22455).
T1 construct: DNA constructs for the extracellular domain (ECD) of human FGF-; HPC4 (C); made in house; host or cells: HEK 293-6E
T1 sequence (P22455 22-369 limits assumed): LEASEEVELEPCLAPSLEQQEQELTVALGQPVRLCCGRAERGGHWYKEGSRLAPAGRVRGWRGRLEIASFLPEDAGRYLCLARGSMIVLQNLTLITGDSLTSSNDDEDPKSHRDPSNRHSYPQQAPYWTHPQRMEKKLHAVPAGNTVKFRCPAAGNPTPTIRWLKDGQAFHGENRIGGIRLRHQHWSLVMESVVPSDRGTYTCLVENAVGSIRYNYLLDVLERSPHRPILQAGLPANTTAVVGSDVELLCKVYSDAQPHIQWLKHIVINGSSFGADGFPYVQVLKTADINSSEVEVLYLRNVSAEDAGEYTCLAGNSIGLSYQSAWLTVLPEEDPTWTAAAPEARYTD
In words: single concentration BLI of crude peptides. The settings on record: crude T18 selection 1 (1:1:1) peptides, single concentration BLI (Table S4); read-out: KD (4). The method, boiled down: (§1)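 Streptavidin biosensors carrying biotinylated FGF receptor ECD were immersed in peptide (~1 μM for crude single-point runs, a concentration series for purified peptides) and then in peptide-free buffer. KD was obtained by fitting the BLI association and dissociation curves.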

The target of a further experiment is T2, FGF-R1C ECD (Homo sapiens, UniProt P11362).
T2 sequence (P11362 22-376 limits assumed): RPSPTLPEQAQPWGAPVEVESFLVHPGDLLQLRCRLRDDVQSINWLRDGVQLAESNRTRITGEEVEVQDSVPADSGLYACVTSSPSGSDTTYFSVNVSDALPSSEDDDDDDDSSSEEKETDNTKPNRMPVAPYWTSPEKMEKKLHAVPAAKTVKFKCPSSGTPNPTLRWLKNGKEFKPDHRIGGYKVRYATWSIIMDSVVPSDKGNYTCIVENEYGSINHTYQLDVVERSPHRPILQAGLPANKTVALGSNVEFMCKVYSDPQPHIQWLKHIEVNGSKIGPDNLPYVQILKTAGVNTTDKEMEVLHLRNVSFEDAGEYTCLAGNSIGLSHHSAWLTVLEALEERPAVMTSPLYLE
Kind of experiment: biochemical. Set-up: DNA constructs for the extracellular domain (ECD) of human FGF-; HPC4 (C); made in house; host or cells: HEK 293-6E. In a few lines:
as §1

Another experiment has as its target T3, FGF-R3C ECD (Homo sapiens, UniProt P22607).
T3 sequence (P22607 23-375 limits assumed): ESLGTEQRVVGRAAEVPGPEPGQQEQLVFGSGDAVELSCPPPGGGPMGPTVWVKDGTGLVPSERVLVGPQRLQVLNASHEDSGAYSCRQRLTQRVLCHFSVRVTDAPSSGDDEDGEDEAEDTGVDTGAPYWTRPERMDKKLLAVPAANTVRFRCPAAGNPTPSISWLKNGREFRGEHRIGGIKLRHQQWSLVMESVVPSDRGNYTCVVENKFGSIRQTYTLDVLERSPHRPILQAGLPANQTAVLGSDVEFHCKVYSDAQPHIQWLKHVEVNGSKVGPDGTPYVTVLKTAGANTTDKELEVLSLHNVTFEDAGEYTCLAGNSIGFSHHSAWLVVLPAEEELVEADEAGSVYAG
In words: biochemical. Set-up: DNA constructs for the extracellular domain (ECD) of human FGF-; HPC4 (C); made in house; host or cells: HEK 293-6E. In a few lines:
as §1

Positions of bridges follow the written chain, without caps; N, C: chain ends. Residues, ends and D or L forms follow the SMILES beside them. Bounds are passed on as bounds.

For orientation: Kd means the constant that tells how readily two partners part at equilibrium. In the case of `CC[C@H](C)[C@@H]1NC(=O)[C@H](CC(C)C)NC(=O)[C@H](Cc2ccc(O)cc2)NC(=O)[C@H](Cc2c[nH]cn2)NC(=O)[C@H](Cc2c[nH]cn2)NC(=O)CNC(=O)[C@H](CC(C)C)NC(=O)[C@H](C(C)C)NC(=O)[C@H](Cc2ccccc2)NC(=O)[C@H](CC(=O)O)NC(=O)[C@H](Cc2ccc(O)cc2)NC(=O)[C@H]([C@@H](C)O)NC(=O)[C@@H](NC(=O)[C@H](CCSC)NC(C)=O)CSSC[C@@H](C(=O)NCC(=O)N[C@@H](CO)C(=O)NCC(=O)N[C@@H](CO)C(=O)N[C@@H](CC(=O)O)C(=O)N[C@@H](Cc2ccc(O)cc2)C(=O)N[C@@H](CCCCN)C(=O)N[C@@H](CC(=O)O)C(=O)N[C@@H](CC(=O)O)C(=O)N[C@@H](CC(=O)O)C(=O)N[C@@H](CC(=O)O)C(=O)N[C@@H](CCCCN)C(N)=O)NC1=O` (Ac-MCTYDFVLGHHYLICGSGSDYKDDDDK-NH2; disulfide 2-15), the equilibrium dissociation constant (Kd) at FGF-R4 ECD, at FGF-R1C ECD and at FGF-R3C ECD was over 10 µM each time.
With `CSCC[C@H](NC(C)=O)C(=O)N[C@H]1CSSC[C@@H](C(=O)NCC(=O)N[C@@H](CO)C(=O)NCC(=O)N[C@@H](CO)C(=O)N[C@@H](CC(=O)O)C(=O)N[C@@H](Cc2ccc(O)cc2)C(=O)N[C@@H](CCCCN)C(=O)N[C@@H](CC(=O)O)C(=O)N[C@@H](CC(=O)O)C(=O)N[C@@H](CC(=O)O)C(=O)N[C@@H](CC(=O)O)C(=O)N[C@@H](CCCCN)C(N)=O)NC(=O)[C@H](Cc2c[nH]cn2)NC(=O)[C@H](CC(C)C)NC(=O)[C@H](Cc2ccc(O)cc2)NC(=O)[C@H](CC(C)C)NC(=O)[C@H](CCC(=O)O)NC(=O)[C@H](CCC(=O)O)NC(=O)[C@H](Cc2ccccc2)NC(=O)[C@H](CC(C)C)NC(=O)[C@H](Cc2ccccc2)NC(=O)[C@H](CCC(=O)O)NC(=O)[C@H](Cc2ccc(O)cc2)NC(=O)[C@H]([C@@H](C)O)NC1=O` (Ac-MCTYEFLFEELYLHCGSGSDYKDDDDK-NH2; disulfide 2-15), the Kd at FGF-R4 ECD, at FGF-R1C ECD and at FGF-R3C ECD was over 10 µM each time.
`CSCC[C@H](NC(C)=O)C(=O)N[C@H]1CSSC[C@@H](C(=O)NCC(=O)N[C@@H](CO)C(=O)NCC(=O)N[C@@H](CO)C(=O)N[C@@H](CC(=O)O)C(=O)N[C@@H](Cc2ccc(O)cc2)C(=O)N[C@@H](CCCCN)C(=O)N[C@@H](CC(=O)O)C(=O)N[C@@H](CC(=O)O)C(=O)N[C@@H](CC(=O)O)C(=O)N[C@@H](CC(=O)O)C(=O)N[C@@H](CCCCN)C(N)=O)NC(=O)[C@H](CCCNC(=N)N)NC(=O)[C@H](Cc2c[nH]cn2)NC(=O)[C@H](Cc2ccccc2)NC(=O)[C@H](CC(C)C)NC(=O)[C@H](CCCCN)NC(=O)[C@H](Cc2ccc(O)cc2)NC(=O)[C@H](Cc2ccc(O)cc2)NC(=O)[C@H](Cc2ccc(O)cc2)NC(=O)[C@H](C(C)C)NC(=O)[C@H](Cc2ccc(O)cc2)NC(=O)[C@H]([C@@H](C)O)NC1=O` (Ac-MCTYVYYYKLFHRCGSGSDYKDDDDK-NH2; disulfide 2-14): the dissociation constant Kd at FGF-R4 ECD was 0.003 µM; at FGF-R1C ECD it was over 10 µM; on FGF-R3C ECD it was over 10 µM.
With `CC[C@H](C)[C@@H]1NC(=O)[C@H](Cc2ccc(O)cc2)NC(=O)[C@H](CCCCN)NC(=O)[C@H](C(C)C)NC(=O)[C@@H](NC(=O)[C@H](CCSC)NC(C)=O)CSSC[C@@H](C(=O)NCC(=O)N[C@@H](CO)C(=O)NCC(=O)N[C@@H](CO)C(=O)N[C@@H](CC(=O)O)C(=O)N[C@@H](Cc2ccc(O)cc2)C(=O)N[C@@H](CCCCN)C(=O)N[C@@H](CC(=O)O)C(=O)N[C@@H](CC(=O)O)C(=O)N[C@@H](CC(=O)O)C(=O)N[C@@H](CC(=O)O)C(=O)N[C@@H](CCCCN)C(N)=O)NC(=O)[C@H](Cc2c[nH]cn2)NC(=O)[C@H](Cc2ccccc2)NC(=O)[C@H](C(C)C)NC(=O)[C@H](CO)NC(=O)[C@H](Cc2c[nH]c3ccccc23)NC(=O)[C@H](Cc2ccc(O)cc2)NC(=O)[C@H](CCCCN)NC1=O` (Ac-MCVKYIKYWSVFHCGSGSDYKDDDDK-NH2; disulfide 2-14), the Kd is 0.017 µM at FGF-R4 ECD, over 10 µM at FGF-R1C ECD and over 10 µM at FGF-R3C ECD.
Take `CSCC[C@H](NC(C)=O)C(=O)N[C@H]1CSSC[C@@H](C(=O)NCC(=O)N[C@@H](CO)C(=O)NCC(=O)N[C@@H](CO)C(=O)N[C@@H](CC(=O)O)C(=O)N[C@@H](Cc2ccc(O)cc2)C(=O)N[C@@H](CCCCN)C(=O)N[C@@H](CC(=O)O)C(=O)N[C@@H](CC(=O)O)C(=O)N[C@@H](CC(=O)O)C(=O)N[C@@H](CC(=O)O)C(=O)N[C@@H](CCCCN)C(N)=O)NC(=O)[C@H](Cc2ccc(O)cc2)NC(=O)[C@H](Cc2c[nH]c3ccccc23)NC(=O)[C@H](CC(N)=O)NC(=O)[C@H](CCCNC(=N)N)NC(=O)[C@H](CC(=O)O)NC(=O)[C@H](CC(C)C)NC(=O)[C@H](CCCNC(=N)N)NC(=O)[C@H](Cc2ccc(O)cc2)NC(=O)[C@H](CCCCN)NC(=O)[C@H](Cc2c[nH]c3ccccc23)NC(=O)[C@H](C(C)C)NC1=O` (Ac-MCVWKYRLDRNWYCGSGSDYKDDDDK-NH2; disulfide 2-14): the dissociation constant Kd on FGF-R4 ECD was 2.04 µM; at FGF-R1C ECD it was 0.078 µM; on FGF-R3C ECD it was over 10 µM.
As for `CSCC[C@H](NC(C)=O)C(=O)N[C@H]1CSSC[C@@H](C(=O)NCC(=O)N[C@@H](CO)C(=O)NCC(=O)N[C@@H](CO)C(=O)N[C@@H](CC(=O)O)C(=O)N[C@@H](Cc2ccc(O)cc2)C(=O)N[C@@H](CCCCN)C(=O)N[C@@H](CC(=O)O)C(=O)N[C@@H](CC(=O)O)C(=O)N[C@@H](CC(=O)O)C(=O)N[C@@H](CC(=O)O)C(=O)N[C@@H](CCCCN)C(N)=O)NC(=O)[C@H](Cc2c[nH]cn2)NC(=O)[C@H](Cc2c[nH]c3ccccc23)NC(=O)[C@H](CC(N)=O)NC(=O)[C@H](Cc2ccc(O)cc2)NC(=O)[C@H](Cc2c[nH]cn2)NC(=O)[C@H](Cc2c[nH]cn2)NC(=O)[C@H](CO)NC(=O)[C@H](Cc2ccc(O)cc2)NC(=O)[C@H](CCC(N)=O)NC(=O)[C@H](Cc2c[nH]c3ccccc23)NC(=O)[C@H](C(C)C)NC1=O` (Ac-MCVWQYSHHYNWHCGSGSDYKDDDDK-NH2; disulfide 2-14), the dissociation constant Kd on FGF-R4 ECD, on FGF-R1C ECD and on FGF-R3C ECD was over 10 µM in each case.
As to `CC[C@H](C)[C@@H]1NC(=O)[C@H](Cc2c[nH]c3ccccc23)NC(=O)[C@H]([C@@H](C)CC)NC(=O)[C@H](CO)NC(=O)[C@@H]2CCCN2C(=O)[C@H](Cc2c[nH]cn2)NC(=O)[C@H](CO)NC(=O)[C@H](Cc2c[nH]c3ccccc23)NC(=O)[C@H](Cc2c[nH]c3ccccc23)NC(=O)[C@H](C(C)C)NC(=O)[C@@H](NC(=O)[C@H](CCSC)NC(C)=O)CSSC[C@@H](C(=O)NCC(=O)N[C@@H](CO)C(=O)NCC(=O)N[C@@H](CO)C(=O)N[C@@H](CC(=O)O)C(=O)N[C@@H](Cc2ccc(O)cc2)C(=O)N[C@@H](CCCCN)C(=O)N[C@@H](CC(=O)O)C(=O)N[C@@H](CC(=O)O)C(=O)N[C@@H](CC(=O)O)C(=O)N[C@@H](CC(=O)O)C(=O)N[C@@H](CCCCN)C(N)=O)NC1=O` (Ac-MCVWWSHPSIWICGSGSDYKDDDDK-NH2; disulfide 2-13), the Kd is over 10 µM at FGF-R4 ECD, 0.065 µM at FGF-R1C ECD and over 10 µM at FGF-R3C ECD.

The record behind these values is article PMC10763615, “Identification and engineering of potent cyclic peptides with selective or promiscuous binding through biochemical profiling and bioinformatic data analysis” (RSC Chemical Biology, 2023).
